Here are results for 6 compounds from patent publication US8937068B2, “Pyridopyrazine derivatives and their use” (Zentaris GmbH, priority 2005, dated 2015).

One data set deals with BxPC3. Nature of the data set: XTT assay, anti-proliferative effect, BxPC3. Particulars: Homo sapiens, BXPC-3; 45 h incubation. It counts as cell-based. How it is done:
(§1) The principle of this test is based on the intracellular reduction of the tetrazolium dye XTT (sodium 3′-[1-(phenylaminocarbonyl)-3,4-tetrazolium]-bis(4-methoxy-6-nitro)benzene sulfonic acid, Sigma) to a formazan dye by mitochondrial dehydrogenases. The dye is only formed by metabolically active cells and its photometrically measurable intensity is a quantitative indicator for the presence of living cells. The reduction of dye formation by incubation of the cells with substances serves as a parameter for the anti-proliferative effect.
(§2) The tumour cell lines (ATCC) were injected into 96-well microtitre plates in a defined cell number (5000 cells/well for BxPC3 and Hct116; 10000 cells/well for MDA MB468) and then incubated overnight in an incubator at 37° C., 5% CO2 and 95% air humidity. The test substances were prepared as stock solutions (10 mM) in DMSO. […] The cell plates were then incubated for 45 h in an incubator at 37° C., 5% CO2 and 95% air humidity.
(§3) For the detection reaction the substrate XTT was mixed with PMS (N-Methyl dibenzopyrazine methylsulfate, Sigma) and added to the cells so that a final concentration of 325 μg XTT/ml and 2.5 μg PMS/ml was obtained. It was then incubated for 3 h at 37° C., 95% air humidity. The formazan salt formed by the cellular dehydrogenases could then be quantified by adsorption at 490 nm.
(§4) The % inhibition value was evaluated by means of the following formula from the values for the optical densities measured in each case at 490 nm:
(§5) Eight determinations were made for each control and two for the substance samples. The 0% control contains no cells, the 100% control (proliferation control) contains no test substance. The EC50 values were determined using GraphPadPrism.

For another data set, the system named is MDA-MB468. Nature of the data set: XTT assay, anti-proliferative effect, MDA-MB468. It counts as cell-based. Conditions: 45 h incubation. Here is the method:
as §1, §2, §3, §4, §5

A further data set relates to Erk → pRsk. Nature of the data set: Cellular substrate phosphorylation (Western Blotting), Erk substrate pRsk. It counts as cell-based. Conditions: 50 μM, 5 h. How it is done: (§6) This method can be used to predict whether the kinase modulator under study also achieves the desired effect in a cellular context, i.e. in this case, a substrate protein downstream of the target kinase is investigated for its phosphorylation status. For this purpose, the cells incubated with substance are lysed and the total protein separated on a reducing polyacrylamide gel. The proteins are then transferred to a PVDF membrane by means of Western Blotting and the substrate bands sought are made visible with specific antibodies and a suitable detection method. The substrate proteins downstream of the target kinases are detected simultaneously with a respectively special anti-phospho-antibody and at the same time a total antibody which recognizes the substrate total protein. This simultaneous measurement can be made using the duplex technology of the ODYSSEY imagers (LiCOR). The intensity of the total substrate bands is used for normalising or quantifying the phosphorylation inhibition or activation.
(§7) Suitable tumour cell lines (e.g. BxPC3, Hct116 or MDA MB468) were injected into six-well microtitre plates in a defined cell number (e.g. 350 000 cells/well for BxPC3 and Hct116) in the respective standard complete medium and then incubated overnight at 37° C., 5% CO2 and 95% air humidity. The cells were then incubated for a further 24 h under serum-reduced conditions i.e. in the respective medium but with only 0.25% serum. The test substances were prepared as stock solutions (10 mM) in DMSO and incubated with the cells in final concentrations of 5, 15.8 and 50 μM for 5 h. This was followed by cell lysis in 25 mM Tris, 150 mM NaCl, 10 mM Na-pyrophosphate, 2 mM EGTA, 25 mM β-glycerophosphate, 25 mM NaF, 10% glycerine, 0.75% NP-40, 100 μM NaVO4 buffer. Following protein quantification by means of BCA (bicinchonic acid protein assay kit, Sigma) Assay, protein quantities of about 20 μg per track were separated on a Lämmli polyacrylamide gel and then transferred to a PVDF membrane (Millipore) by means of Semi-Dry Western-Blotting at 0.8 mA/cm^2 for 1 h. This was followed by pre-hybridisation of the membrane for 1 hour in I-block reagent (Applied Biosystems) and incubation overnight with the specific antibodies. To determine the Erk and PI3K inhibition, the respectively downstream substrates Rsk1 were detected with the total antibody (Rsk #sc-231g C-21, Santa Cruz) and the phospho-antibody (Phospho-p90RSK (S380) #9341, NEB Cell Signalling) and Akt was detected with the total antibody (Akt1 #sc-1618 C-20, Santa Cruz) and the phospho-antibody (Phospho-Akt (Ser 473) #9271, NEB Cell Signaling). After washing the membrane, secondary antibody incubation was carried out with anti-rabbit IR Dye 800 (#611-732-127, Rockland) for the phospho-antibody and anti-goat Alexa Fluor 680 (#A-21081, Molecular Probes) for the total protein-antibody. After incubating for 30 min at room temperature in the dark, the hybridisation of the detection antibody on the membrane was detected by scanning in the ODYSSEY imager (LiCOR).
(§8) The reduction of the fluorescence intensity of the phospho-substrate bands (pRsk and pAkt) is given in the table below as % inhibition and relates to the following formula:
(§9) The band intensity (fluorescence intensity) of the respective non-inhibited (without substance) phospho-substrates was used as 100% control.

For another data set, the system named is PI3K → pAkt. The data set is described as follows: Cellular substrate phosphorylation (Western Blotting), PI3K substrate pAkt. Particulars: 50 μM, 5 h. The format is cell-based. How it is done: as §6, §7, §8, §9

For the compound `C=CCNC(=S)Nc1ccc2ncc(-c3ccc(O)cc3)nc2n1` [Compound 30, 1-allyl-3-[3-(4-hydroxy-phenyl)-pyrido[2,3-b]pyrazin-6-yl]-thiourea], the melting point is 230 °C (dec.). The compound also showed an EC50 with BxPC3 of 12 µM. The compound further gave an EC50 with MDA-MB468 (Homo sapiens, MDA-MB-468) of 4 µM. Besides, in the data set on Erk → pRsk, 50 µM produced 90% inhibition. The same compound yielded an inhibition at 50 µM with PI3K → pAkt of 100%.
With `CCNC(=O)Nc1ccc2ncc(Nc3ccc(C)cc3)nc2n1` [Compound 150, 1-Ethyl-3-(3-p-tolylamino-pyrido[2,3-b]pyrazin-6-yl)-urea], the EC50 in the data set with BxPC3 worked out at 0.9 µM; with MDA-MB468 (Homo sapiens, MDA-MB-468) it was 4.3 µM. Besides, the values for the inhibition at 50 µM in the data set on Erk → pRsk and in the data set with PI3K → pAkt were 0% and 90%, respectively.
With `O=C(NCCCCO)Nc1ccc2ncc(-c3ccccc3)nc2n1` [Compound 146, 1-(4-Hydroxy-butyl)-3-(3-phenyl-pyrido[2,3-b]pyrazin-6-yl)-urea], the EC50 in the data set with BxPC3 is greater than 50 µM; with MDA-MB468 (Homo sapiens, MDA-MB-468), roughly 20 µM. Further, the values for the inhibition at 50 µM in the data set with Erk → pRsk and in the data set with PI3K → pAkt were 100% and 10%, respectively.
The compound `CCNC(=O)Nc1ccc2ncc(-c3ccc(O)c(OC)c3)nc2n1.Cc1ccc(S(=O)(=O)O)cc1` [Compound 183, 1-Ethyl-3-[3-(4-hydroxy-3-methoxy-phenyl)-pyrido[2,3-b]pyrazin-6-yl]-urea p-Toluolsulfonate] came in with an EC50 in the data set with MDA-MB468 of 4.3 µM. Also, in the data set with Erk → pRsk, the “Inhibition of cellular substrate phosphorylation Erk → pRsk” value is reported as 80%. Moreover, in the data set on PI3K → pAkt, the “Inhibition of cellular substrate phosphorylation PI3K → pAkt” value is reported as 80%.
For the compound `CCNC(=O)Nc1ccc2ncc(-c3cnn(C)c3)nc2n1` [Compound 173, 1-Ethyl-3-[3-(1-methyl-1H-pyrazol-4-yl)-pyrido[2,3-b]pyrazin-6-yl]-urea], the EC50 in the data set with MDA-MB468 (Homo sapiens, MDA-MB-468) is greater than 25 µM. The inhibition at 50 µM in the data set on Erk → pRsk was 90%; in the data set with PI3K → pAkt, 50%.
For `CCNC(=O)Nc1ccc2ncc(-c3ccc(O)c(OC)c3)nc2n1` [Compound 124, 1-Ethyl-3-[3-(4-hydroxy-3-methoxy-phenyl)-pyrido[2,3-b]pyrazin-6-yl]-urea], the EC50 in the data set on BxPC3 worked out at 10 µM; with MDA-MB468 (Homo sapiens, MDA-MB-468), 10 µM. The inhibition at 50 µM in the data set with Erk → pRsk and with PI3K → pAkt was 90% each time.
